From the supplement of paper PMC5412046
Counter-ions that a name gives are not always drawn.

What was measured:
SB.mhdgc-1 = test: AC50 for growth inhibition (viability) (log10 M); higher = less potent; conditions: SB.mhdgc-1 (hereditary c.1380delA CDH1 gastric cancer)
Method in brief: (§1)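 Dosing used a pintool to add 23 nL compound in DMSO to 1536 wells, each with 500 hereditary or sporadic patient-derived gastric cancer cells, across 11 threefold dilutions starting at a final 46 μM. Viability after 48 h was measured by CellTiter-Glo luminescence on a ViewLux. The log half-maximal activity concentration derives from a four-parameter fit of that viability normalised to DMSO, limited to high-quality curve classes.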

SB.msgc-1 = test: as above; conditions: SB.msgc-1 (sporadic gastric cancer)
Method in brief: as §1

Compound | AC50 for growth inhibition (log10 M) (SB.mhdgc-1) | AC50 for growth inhibition (log10 M) (SB.msgc-1)
CC(C)CNc1ccnc(NCc2csc(-c3ccccc3)n2)n1 [KHS101] | -4.78 | -4.78
COc1cc(OC)c(/C=C/[S+](=O)([O-])Cc2ccc(OC)c(NCC(=O)[O][Na])c2)c(OC)c1 | -6.03 | -6.33
COc1ccc2c(c1OC)C(=O)O[C@H]2[C@H]1c2c(cc3c(c2OC)OCO3)CCN1C [Noscapine] | -6.78 | -6.63
CNCCCC12CCC(c3ccccc31)c1ccccc12 [Maprotiline hydrochloride] | -4.78 | -4.63
COc1ccc(C(=O)CC(=O)c2ccc(C(C)(C)C)cc2)cc1 [Avobenzone] | -6.18 | -5.58
OCCNC1CCCc2c1[nH]c1ccc(-c3ccccc3)cc21 (stereo not drawn) [CASIN] | -4.73 | -4.63
COc1cccc2cc(-c3nc(C4CCC(C(=O)O)CC4)n4ncnc(N)c34)[nH]c12 (stereo not drawn) [OSI-027] | -7.58 | -5.33
O=C(NCc1ccccc1)c1csc(Nc2ccncn2)n1 [Thiazovivin] | -4.78 | -4.78
O=C(c1ccc(Nc2nccc(-c3cc4ccccc4s3)n2)cc1)N1CCC(N2CCCC2)CC1 [IKK16] | -5.08 | -4.88
CC[C@@]1([C@@H]2O[C@@H]([C@H]3O[C@@](O)(CO)[C@H](C)C[C@@H]3C)C[C@@H]2C)CC[C@H]([C@]2(C)CC[C@]3(C[C@H](O)[C@@H](C)[C@@H]([C@@H](C)[C@@H](OC)[C@H](C)C(=O)[O-])O3)O2)O1 [Monensin sodium salt] | -6.99 | -6.94
Nc1nc(F)nc2c1ncn2[C@@H]1O[C@H](CO)[C@@H](O)[C@H]1O [2-Fluoroadenosine] | -6.23 | -6.23
COC(=O)/C=C/C(=O)OC [Dimethyl fumarate] | -5.68 | -5.48
N[S+](=O)([O-])c1cccc2c1C(=O)c1cccc(O)c1C2=O [LLL-12] | -6.98 | -6.63
Oc1ccc(-c2ccc(-c3cc(Nc4cccc(CNC5CC5)c4)[nH]n3)cc2)c(O)c1 [TCS-2312] | -6.28 | -5.03
C[C@@H]1[C@H](O)[C@@H](C)/C=C/C=C/C=C/C=C/C=C/C=C/C=C/[C@H](O[C@@H]2O[C@H](C)[C@@H](O)[C@H](N)[C@@H]2O)C[C@@H]2O[C@](O)(C[C@@H](O)C[C@@H](O)[C@H](O)CC[C@@H](O)C[C@@H](O)CC(=O)O[C@H]1C)C[C@H](O)[C@H]2C(=O)O [Amphotericin B] | -6.38 | -4.88
CNCC(O)C(O)C(O)C(O)CO.O=C(O)c1ccc(-c2cc3cccnc3c(-c3ccc4nonc4c3)n2)cc1 [NVP-ABE171] | -4.58 | -4.63
CC/C(=C(/CC)c1ccc(O)cc1)c1ccc(O)cc1 [Diethylstilbestrol] | -5.53 | -4.83
c1ccc(-c2oc3ncnc(NC[C@@H]4CCCO4)c3c2-c2ccccc2)cc1 [AIM-100] | -5.08 | -5.73
O=C1c2c(O)cc(O)cc2O[C@H](c2cc(O)c(O)c(O)c2)[C@H]1O [Dihydromyricetin] | -5.33 | -5.23
Nc1ccc(C(=O)c2cc3c(ccc4ccccc43)[nH]2)cc1 [IPFK2] | -4.73 | -5.33
CCN(CC)CCCCNc1nc2cc(Cl)c(Cl)cc2nc1-c1ccc(-c2cccs2)s1 | -5.03 | -4.68
CCN1CCN(c2ccc(Nc3cc(N(C)C(=O)Nc4c(Cl)c(OC)cc(OC)c4Cl)ncn3)cc2)CC1 [BGJ-398] | -4.58 | -4.73
O=[N+]([O-])c1cnc(Sc2nnc(O)n2-c2ccc3c(c2)OCCO3)s1 [BI-78D3] | -5.43 | -4.83
O=C(NC1CC1)c1cccc(-c2ccc3c(NC(=O)C4CC4)n[nH]c3c2)c1 | -5.93 | -6.03
COc1ccc(-c2ccc3ncc4c(c3c2)n(-c2ccc(N3CCNCC3)c(C(F)(F)F)c2)c(=O)n4C)cn1 [NVP-BGT226] | -6.58 | -5.58

Compound | AC50 for growth inhibition (log10 M) (SB.mhdgc-1) | AC50 for growth inhibition (log10 M) (SB.msgc-1)
Cc1cc2c(F)c(Oc3ncnn4cc(OC[C@@H](C)O)c(C)c34)ccc2[nH]1 [Brivanib] | -4.98 | -4.73
COc1cc(F)c(C(C)C)cc1-c1ccc(C(F)(F)F)cc1CN1C(=O)O[C@H](c2cc(C(F)(F)F)cc(C(F)(F)F)c2)[C@@H]1C [Anacetrapib] | -5.13 | -5.48
OC[C@H]1O[C@H](C[C@@H]1O)N2\C=C(F)/C(=O)NC2=O [Floxuridine] | -7.78 | -6.48
C=CCO/N=C(/C[C@H]1O[C@@H]2O[C@]3(C)CC[C@H]4[C@H](C)CC[C@@H]([C@H]1C)[C@@]24OO3)[C@H]1O[C@@H]2O[C@]3(C)CC[C@H]4[C@H](C)CC[C@@H]([C@H]1C)[C@@]24OO3 [BTM-2C-dimer allyl oxime] | -6.88 | -6.58
CC(C)c1ccccc1Cc1cc(C(=O)Nc2ccc([S+](=O)([O-])c3ccccc3C(C)(C)C)cc2)c(O)c(O)c1O [TW-37] | -4.83 | -5.13
CN(C)c1ccc2nc3ccc(N(C)C)cc3[s+]c2c1 [Methylene blue] | -5.83 | -5.33
CN[C@@H]1C[C@H]2O[C@@](C)([C@@H]1OC)n1c3ccccc3c3c4c(c5c6ccccc6n2c5c31)C(=O)N[C@H]4O [7-Hydroxystaurosporine] | -6.28 | -5.93
CC/1=C(\O)C(=O)\C=C2/C1=C/C=C3\[C@@]2(C)CC[C@@]4(C)[C@@H]5C[C@@](C)(CC[C@]5(C)CC[C@]34C)C(O)=O [Tripterin] | -5.58 | -5.78
ClC/1=C(NCCN2CCOCC2)/C(=O)C3=C(C=CC=N3)C1=O [DA-3003-1] | -5.58 | -5.18
C#Cc1cccc(Nc2ncnc3cc(OCCOC)c(OCCOC)cc23)c1 [Erlotinib hydrochloride] | -6.38 | -5.63
C#Cc1cccc(Nc2ncnc3cc(OC)c(OCCCCCCC(=O)NO)cc23)c1 [CUDC-101] | -8.28 | -7.53
CCNC(=O)C[C@@H]1\N=C(C2=CC=C(Cl)C=C2)/C3=C(C=CC(=C3)OC)[N]4C(=NN=C14)C [I-BET762] | -6.08 | -5.63
CCCCC(C)(C)[C@H](O)/C=C/[C@H]1[C@H](O)CC(=O)[C@@H]1C/C=C\CCCC(=O)O [16,16-dimethyl PGE2] | -4.68 | -4.63
Cc1c(CCOc2ccc(C(=O)O)cc2)c2cc(Cl)ccc2n1C(c1ccccc1)c1ccccc1 [CDIBA] | -4.73 | -4.98
COc1ccc([S+](=O)([O-])Nc2cc(-c3c(O)ccc4ccccc34)c(O)c3ccccc23)cc1 [C-188-9] | -4.73 | -4.73
NC/1=N/C(=O)C2=C([NH]C=C2CCC3=CC=C(C=C3)C(=O)N[C@@H](CCC(O)=O)C(O)=O)N1 [Pemetrexed disodium] | -6.33 | -6.23
C[C@@H]1C[C@H]2[C@@H]3\C=C(C)/C4=C/C5=C(C[C@]4(C)[C@H]3[C@@H](O)C[C@]2(C)[C@@]1(O)C(=O)COC(C)=O)C=N[N]5C6=CC=CC=C6 [Cortivazol] | -5.53 | -5.58
Cc1nc2ccc(CN(C)c3ccc(C(=O)N[C@@H](CCC(=O)O)C(=O)O)s3)cc2c(=O)[nH]1 [Raltitrexed] | -7.48 | -7.28
OC1=CC2=C(C(=C1)O)C(=O)\C(=C(/O2)C3=CC(=C(O)C=C3)O)O [Quercetine] | -5.13 | -4.68
COc1cc(Nc2ncc(F)c(Nc3ccc4c(n3)N(COP(=O)(O)O)C(=O)C(C)(C)O4)n2)cc(OC)c1OC [Fostamatinib disodium] | -5.33 | -5.93
NC(CO)(CO)CCc1ccc(Sc2cccc(OCc3ccccc3)c2)cc1Cl [KRP 203] | -5.03 | -4.58
NC/1=N/C(=O)C2=C(N1)[N](C=N2)[C@@H]3C[C@H](O)[C@@H](CO)C3=C [Entecavir] | -4.78 | -5.28
CC(C)C[C@H](NC(=O)CNC(=O)c1cc(Cl)ccc1Cl)B1OC(=O)CC(CC(=O)O)(C(=O)O)O1 (stereo partly drawn) [Ixazomib citrate] | -7.03 | -7.23
CC(C)n1nc(-c2cc3cc(O)ccc3[nH]2)c2c(N)ncnc21 [PP-242] | -6.93 | -5.28
